Results published in patent US20160303095A1, “METHODS OF TREATING HEPATITIS B VIRUS” (Gilead Sciences, Inc., priority 2015, published 2016).

How the values were obtained:
[1] = target: T1, KDM4E (Homo sapiens, UniProt B2RXH2); assay: Biochemical KDM inhibition assay (LANCE), KDM4E; conditions: read-out: Biochemical IC50 KDM 4E
T1 construct: host or cells: Sf9 cells
T1 sequence (B2RXH2 1-506): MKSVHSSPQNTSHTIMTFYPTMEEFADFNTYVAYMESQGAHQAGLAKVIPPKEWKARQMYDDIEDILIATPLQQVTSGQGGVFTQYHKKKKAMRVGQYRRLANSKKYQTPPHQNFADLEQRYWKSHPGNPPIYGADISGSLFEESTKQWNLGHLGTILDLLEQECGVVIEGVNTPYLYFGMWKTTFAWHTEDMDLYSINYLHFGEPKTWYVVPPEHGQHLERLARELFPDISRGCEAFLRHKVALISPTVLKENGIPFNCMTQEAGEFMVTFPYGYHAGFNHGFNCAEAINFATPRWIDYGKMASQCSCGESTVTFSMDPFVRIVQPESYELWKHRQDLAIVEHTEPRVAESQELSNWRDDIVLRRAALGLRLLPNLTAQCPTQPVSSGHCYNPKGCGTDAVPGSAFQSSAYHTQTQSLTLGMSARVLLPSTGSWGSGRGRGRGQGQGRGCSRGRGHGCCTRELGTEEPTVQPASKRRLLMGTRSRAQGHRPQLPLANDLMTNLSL

[2] = target: T2, KDM5B (Homo sapiens, UniProt Q9UGL1); assay: Biochemical KDM inhibition assay (LANCE), KDM5B; conditions: read-out: Biochemical IC50 KDM 5B
T2 construct: host or cells: Sf9 cells
Procedure: (§1) Representative compounds were characterized for their inhibition of KDM5 using biotinylated histone substrates. Inhibition was measured in vitro (CEREP Poitier, Le Bois l'Evêque, France) following experimental conditions described in Table 2. Briefly, the test compound, reference compound or water (control) was mixed with about 2-20 ng of recombinant, Human enzymes expressed in Sf9 cells in a buffer containing 45 mM Hepes/Tris (pH 7), 5 μM FAS, 100 μM ascorbic acid, 10 μM 2-oxoglutarate, 0.01% Tween 20 and 0.01% BSA. Thereafter, the reaction was initiated by adding the biotin-labeled substrate, and the mixture was incubated for 10-30 min at room temperature. For basal control measurements, the enzyme was omitted from the reaction mixture. Following incubation the reaction was stopped by adding 1 mM EDTA. After 5 min, the anti-methyl histone antibody labeled with europium chelate and the Ulight streptavidine (Perkin Elmer Waltham, Mass.) were added. After 60 min more, the fluorescence transfer was measured at λex=320 nm and λem=620 and λem=665 nm using a microplate reader (Envision, Perkin Elmer) (LANCE). The enzyme activity was determined by dividing the signal measured at λem=665 nm by that measured at 620 nm (ratio).

[3] = target: KDM5A (Homo sapiens, UniProt P29375); assay: Biochemical KDM inhibition assay (LANCE), KDM5A; conditions: read-out: Biochemical IC50 KDM 5A
Procedure: as §1

[4] = Alamar Blue cell viability assay; assay type: cell-based; conditions: human
Procedure: Alamar Blue cell viability reagent (Cat#DAL1100 Life Technologies, Chicago, Ill.) was diluted 1 to 10 in Maintenance Media and added to the cells. Cells were incubated for 4 h at 37° C. and the fluorescence signal, which is proportional to the number of live cells, was read using a fluorimeter with excitation/emission spectra set at 560/590 nm, respectively. Data were converted into percentages of the untreated control and non-linear regression was performed to calculate CC50 values.
PHH were plated in collagen coated tissue culture plates in Plating Media and after 4-hour incubation at 37° C., cells were switched to Maintenance Media. On the next day, the cells were infected with 500 genome equivalents per cell of Genotype-A clinical isolate 21P (ProteoGenex, Culver City, Calif.) in 100 μl Maintenance Media supplemented with 4% PEG 8000 (Cat#V3011 Promega, Madison, Wis.). After an overnight incubation the inoculum was removed and the cells were washed three times with William's Media E and maintained in Maintenance Media. […] Following the transfection, the cells were incubated at 37° C. in a humidified incubator and media was changed every 3-4 days. The assay was terminated on day 14 post infection and cell viability was assessed by Alamar Blue. The collected medium was used for determination of HBsAg and HBeAg levels by MSD ELISA while cells were processed for determination of HBV RNA using qPCR.

[5] = target: T3, KDM5D (Homo sapiens, UniProt Q9BY66); assay: Biochemical KDM inhibition assay (LANCE), KDM5D; conditions: read-out: Biochemical IC50 KDM 5D
T3 construct: host or cells: Sf9 cells
Procedure: as §1

[6] = target: T4, KDM5C (Homo sapiens, UniProt P41229); assay: Biochemical KDM inhibition assay (LANCE), KDM5C; conditions: read-out: Biochemical IC50 KDM 5C
T4 construct: host or cells: Sf9 cells
Procedure: as §1

T3 sequence (Q9BY66 whole entry): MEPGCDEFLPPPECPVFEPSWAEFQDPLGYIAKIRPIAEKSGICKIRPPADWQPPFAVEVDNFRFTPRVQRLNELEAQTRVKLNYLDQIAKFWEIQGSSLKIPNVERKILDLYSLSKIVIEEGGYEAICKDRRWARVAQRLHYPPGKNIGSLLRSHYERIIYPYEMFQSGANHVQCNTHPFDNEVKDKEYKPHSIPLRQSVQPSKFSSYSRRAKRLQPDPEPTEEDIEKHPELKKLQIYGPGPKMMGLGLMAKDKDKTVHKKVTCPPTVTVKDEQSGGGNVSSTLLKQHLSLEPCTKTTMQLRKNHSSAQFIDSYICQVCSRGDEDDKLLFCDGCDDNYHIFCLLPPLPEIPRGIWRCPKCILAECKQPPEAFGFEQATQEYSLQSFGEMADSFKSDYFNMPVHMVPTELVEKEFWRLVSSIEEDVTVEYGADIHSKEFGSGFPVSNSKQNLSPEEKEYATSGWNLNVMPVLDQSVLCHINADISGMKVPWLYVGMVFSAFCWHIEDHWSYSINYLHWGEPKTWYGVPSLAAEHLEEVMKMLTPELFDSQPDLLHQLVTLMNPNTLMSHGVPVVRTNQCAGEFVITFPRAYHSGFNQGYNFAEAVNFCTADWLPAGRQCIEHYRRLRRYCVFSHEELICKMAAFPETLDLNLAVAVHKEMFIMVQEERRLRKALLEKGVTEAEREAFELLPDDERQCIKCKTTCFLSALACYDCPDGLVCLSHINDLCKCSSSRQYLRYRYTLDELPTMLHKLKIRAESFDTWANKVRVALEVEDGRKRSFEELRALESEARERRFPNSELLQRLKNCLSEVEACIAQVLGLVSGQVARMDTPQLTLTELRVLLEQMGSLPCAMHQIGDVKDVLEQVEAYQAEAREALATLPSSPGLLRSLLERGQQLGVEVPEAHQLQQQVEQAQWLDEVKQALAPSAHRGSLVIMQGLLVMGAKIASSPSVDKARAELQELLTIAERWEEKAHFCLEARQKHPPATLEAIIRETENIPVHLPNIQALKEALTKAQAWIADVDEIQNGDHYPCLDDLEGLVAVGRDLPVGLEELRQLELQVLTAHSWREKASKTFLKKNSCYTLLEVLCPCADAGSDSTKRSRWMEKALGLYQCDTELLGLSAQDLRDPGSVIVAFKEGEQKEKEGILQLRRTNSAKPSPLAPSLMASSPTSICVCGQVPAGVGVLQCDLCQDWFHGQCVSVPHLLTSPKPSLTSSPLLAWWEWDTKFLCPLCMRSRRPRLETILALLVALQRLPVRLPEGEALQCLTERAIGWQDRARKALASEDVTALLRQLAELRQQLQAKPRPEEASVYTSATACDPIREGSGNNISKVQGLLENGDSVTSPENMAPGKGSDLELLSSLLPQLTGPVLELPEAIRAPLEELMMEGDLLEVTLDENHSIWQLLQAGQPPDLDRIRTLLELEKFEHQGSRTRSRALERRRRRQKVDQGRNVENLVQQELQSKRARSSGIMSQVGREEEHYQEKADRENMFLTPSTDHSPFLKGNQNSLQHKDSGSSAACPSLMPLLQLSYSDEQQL
Chain of KDM5A (P29375 whole entry): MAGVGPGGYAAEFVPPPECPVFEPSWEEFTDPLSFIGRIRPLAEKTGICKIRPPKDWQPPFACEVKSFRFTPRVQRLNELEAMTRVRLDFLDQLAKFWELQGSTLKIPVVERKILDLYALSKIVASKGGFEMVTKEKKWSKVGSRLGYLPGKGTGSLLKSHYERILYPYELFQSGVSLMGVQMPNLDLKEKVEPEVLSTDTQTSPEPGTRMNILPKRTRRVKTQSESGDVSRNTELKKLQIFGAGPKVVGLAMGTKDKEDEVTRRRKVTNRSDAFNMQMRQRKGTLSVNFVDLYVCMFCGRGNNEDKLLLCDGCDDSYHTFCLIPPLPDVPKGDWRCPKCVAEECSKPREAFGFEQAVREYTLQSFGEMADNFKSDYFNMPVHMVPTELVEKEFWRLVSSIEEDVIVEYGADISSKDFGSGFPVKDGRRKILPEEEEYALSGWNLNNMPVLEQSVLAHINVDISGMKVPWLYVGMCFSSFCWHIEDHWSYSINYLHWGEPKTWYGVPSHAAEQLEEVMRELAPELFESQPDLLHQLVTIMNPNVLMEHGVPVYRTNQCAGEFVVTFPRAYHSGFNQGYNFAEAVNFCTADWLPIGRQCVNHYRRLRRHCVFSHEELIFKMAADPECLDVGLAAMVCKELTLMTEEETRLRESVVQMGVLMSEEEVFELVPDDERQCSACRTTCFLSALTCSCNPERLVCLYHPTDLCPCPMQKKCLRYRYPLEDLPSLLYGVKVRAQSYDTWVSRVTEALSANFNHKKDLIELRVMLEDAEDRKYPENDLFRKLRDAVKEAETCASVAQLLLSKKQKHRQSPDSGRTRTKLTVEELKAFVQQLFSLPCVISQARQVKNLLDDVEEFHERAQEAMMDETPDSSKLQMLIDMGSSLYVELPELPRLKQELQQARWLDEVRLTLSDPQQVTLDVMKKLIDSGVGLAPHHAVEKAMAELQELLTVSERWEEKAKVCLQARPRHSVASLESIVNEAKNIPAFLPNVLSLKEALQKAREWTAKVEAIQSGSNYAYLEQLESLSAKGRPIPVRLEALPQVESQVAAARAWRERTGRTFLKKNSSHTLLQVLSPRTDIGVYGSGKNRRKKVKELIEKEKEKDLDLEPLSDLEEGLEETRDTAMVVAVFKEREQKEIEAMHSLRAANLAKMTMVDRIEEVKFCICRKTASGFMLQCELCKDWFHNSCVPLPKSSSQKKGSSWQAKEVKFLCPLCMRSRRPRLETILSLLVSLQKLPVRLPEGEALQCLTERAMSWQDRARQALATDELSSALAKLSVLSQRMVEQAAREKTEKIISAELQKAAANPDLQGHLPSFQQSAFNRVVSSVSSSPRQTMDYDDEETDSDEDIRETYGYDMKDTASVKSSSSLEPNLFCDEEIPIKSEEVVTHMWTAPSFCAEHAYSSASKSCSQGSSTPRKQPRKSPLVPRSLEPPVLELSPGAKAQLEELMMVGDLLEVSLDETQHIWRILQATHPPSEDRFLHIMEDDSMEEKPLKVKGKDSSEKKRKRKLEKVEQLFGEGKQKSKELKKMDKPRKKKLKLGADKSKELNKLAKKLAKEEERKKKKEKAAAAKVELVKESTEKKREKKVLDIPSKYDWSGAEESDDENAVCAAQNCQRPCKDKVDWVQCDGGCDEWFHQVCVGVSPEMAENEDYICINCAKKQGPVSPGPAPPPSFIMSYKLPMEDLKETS
T4 sequence (P41229 whole entry): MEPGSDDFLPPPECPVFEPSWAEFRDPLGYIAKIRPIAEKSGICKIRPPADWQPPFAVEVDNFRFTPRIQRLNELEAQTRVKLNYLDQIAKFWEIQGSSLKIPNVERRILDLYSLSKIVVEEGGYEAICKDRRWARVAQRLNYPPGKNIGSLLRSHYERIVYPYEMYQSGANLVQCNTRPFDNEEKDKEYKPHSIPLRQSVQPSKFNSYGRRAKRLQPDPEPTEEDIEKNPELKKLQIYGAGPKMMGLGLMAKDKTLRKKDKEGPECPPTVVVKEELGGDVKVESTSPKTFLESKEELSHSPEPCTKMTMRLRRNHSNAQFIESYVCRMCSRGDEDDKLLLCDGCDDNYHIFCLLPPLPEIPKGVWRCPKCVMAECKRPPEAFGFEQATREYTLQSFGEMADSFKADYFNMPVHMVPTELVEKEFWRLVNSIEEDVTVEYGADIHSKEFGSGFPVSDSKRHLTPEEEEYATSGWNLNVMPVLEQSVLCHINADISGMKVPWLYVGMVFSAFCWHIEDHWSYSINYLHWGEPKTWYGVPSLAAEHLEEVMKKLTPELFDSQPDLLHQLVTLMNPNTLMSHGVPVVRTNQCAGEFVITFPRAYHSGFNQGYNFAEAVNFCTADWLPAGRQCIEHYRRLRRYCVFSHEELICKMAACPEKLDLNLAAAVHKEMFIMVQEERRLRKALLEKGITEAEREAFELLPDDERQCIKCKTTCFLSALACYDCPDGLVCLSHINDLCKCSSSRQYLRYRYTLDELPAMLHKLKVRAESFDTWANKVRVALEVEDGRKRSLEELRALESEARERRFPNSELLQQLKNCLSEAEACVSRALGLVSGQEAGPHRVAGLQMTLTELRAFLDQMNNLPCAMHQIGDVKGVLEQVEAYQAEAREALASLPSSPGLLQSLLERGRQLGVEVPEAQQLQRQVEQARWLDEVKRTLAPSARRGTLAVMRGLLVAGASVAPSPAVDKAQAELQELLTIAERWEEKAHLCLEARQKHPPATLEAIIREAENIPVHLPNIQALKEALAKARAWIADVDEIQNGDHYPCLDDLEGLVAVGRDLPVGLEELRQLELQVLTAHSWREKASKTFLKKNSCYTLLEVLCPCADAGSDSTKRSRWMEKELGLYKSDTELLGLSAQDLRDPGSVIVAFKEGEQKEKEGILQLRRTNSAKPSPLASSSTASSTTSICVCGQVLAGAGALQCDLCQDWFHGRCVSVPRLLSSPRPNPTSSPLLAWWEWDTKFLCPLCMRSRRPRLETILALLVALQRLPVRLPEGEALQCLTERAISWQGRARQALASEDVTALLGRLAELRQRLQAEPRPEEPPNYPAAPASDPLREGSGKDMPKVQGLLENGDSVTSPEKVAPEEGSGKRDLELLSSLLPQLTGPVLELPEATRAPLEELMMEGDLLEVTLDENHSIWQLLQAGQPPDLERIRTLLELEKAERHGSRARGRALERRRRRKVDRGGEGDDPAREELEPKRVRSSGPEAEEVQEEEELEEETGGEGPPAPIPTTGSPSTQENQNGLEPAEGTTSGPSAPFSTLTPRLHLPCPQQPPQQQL

Structure (SMILES) | IC50 [1] | IC50 [2] | IC50 [3] | CC50 [4] | IC50 [5] | IC50 [6]
Nc1c(C(=O)O)ccnc1C(=O)O [Example 7, reference compound] | 64 nM | 510 nM | 1200 nM | ≥ 100000 nM | 700 nM | 540 nM
CCOC(=O)c1ccnc(CNCC(=O)N(CC)CCN(C)C)c1 [Example 8] |  |  |  | 28200 nM |  | 
CCN(CCN(C)C)C(=O)CNCc1cc(C(=O)O)ccn1 [Example 9] | 35 nM | 14 nM | 24 nM | ≥ 50000 nM | 66 nM | 26 nM
Cc1cc(Cl)ccc1COc1ccnn1-c1cc(C(=O)O)ccn1 [Example 11] | 110 nM | 36 nM | 28 nM | ≥ 50000 nM | 98 nM | 270 nM
O=C(O)c1ccncc1Nc1nn(CCN2CCC(F)(F)CC2)c2ccc(F)cc12 [Example 13] | 670 nM | 21 nM | 21 nM | ≥ 50000 nM | 65 nM | 86 nM
N#CNC(=O)c1ccncc1Nc1nn(CCN2CCC(F)(F)CC2)c2ccc(F)cc12 [Example 14] | 2300 nM | 14 nM | 29 nM | ≥ 50000 nM | 85 nM | 240 nM
CCN(CC)CCCCNCc1cc(C(=O)O)ccn1 [Example 18] | 1200 nM | 3.1 nM | 11 nM |  | 33 nM | 21 nM
